Measurements reported in patent US9771369B2, “Compounds and methods for kinase modulation, and indications therefor” (Plexxikon Inc., priority 2014, dated 2017).

The molecules below were run against c-kit mutant D816V (Homo sapiens (Human), UniProt P10721, D816V/DEL694-753) (assay: c-Kit mutant D816V biochemical assay (AlphaScreen kinase activity)).
Procedure, shortened: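 Recombinant His-tagged c-Kit D816V kinase domain (residues 551-934, insert 694-753 deleted, E. coli-expressed) phosphorylating 30 nM biotin-(E4Y)10 with 10 μM ATP, HEPES pH 7.2, Mg/Mn, 5% DMSO; 30 min, room temperature. Phosphorylation detected by AlphaScreen (streptavidin donor/PY30 acceptor beads); IC50 from 8-point 1:3 series.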

Chain of c-kit mutant D816V (P10721 other isoform, or with tags, fused parts or gaps D816V/del 694-753): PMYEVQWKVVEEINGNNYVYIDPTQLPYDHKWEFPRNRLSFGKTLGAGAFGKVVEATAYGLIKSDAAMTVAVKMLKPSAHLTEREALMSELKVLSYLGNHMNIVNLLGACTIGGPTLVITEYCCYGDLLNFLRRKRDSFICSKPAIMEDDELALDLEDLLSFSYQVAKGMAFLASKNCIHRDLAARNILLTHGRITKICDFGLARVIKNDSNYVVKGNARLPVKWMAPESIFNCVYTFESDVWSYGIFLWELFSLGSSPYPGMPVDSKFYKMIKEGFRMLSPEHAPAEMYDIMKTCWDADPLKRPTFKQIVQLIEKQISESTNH

SMILES | IC50 [µM]
Cc1nc(C2(C)CCN(c3ncnc4[nH]c(-c5ccc(C#N)cc5)cc34)CC2)[nH]c1-c1cccc(OC(F)F)c1 [P-3194, 4-[4-[4-[5-[3-(difluoromethoxy)phenyl]-4-methyl-1H-imidazol-2-yl]-4-methyl-1-piperidyl]-7H-pyrrolo[2,3-d]pyrimidin-6-yl]benzonitrile] | 0.0001 to 1
Cc1nc(C2(C)CCN(c3ncnc4[nH]c(-c5cnn(C(F)F)c5)cc34)CC2)[nH]c1-c1cccc(OC(F)F)c1 [P-3192, 4-[4-[5-[3-(difluoromethoxy)phenyl]-4-methyl-1H-imidazol-2-yl]-4-methyl-1-piperidyl]-6-[1-(difluoromethyl)pyrazol-4-yl]-7H-pyrrolo[2,3-d]pyrimidine] | 0.0001 to 1
CCOc1ccc(-c2[nH]c(C3(C)CCN(c4ncnc5[nH]c(-c6cnn(C(F)F)c6)cc45)CC3)nc2C)cc1F [P-3210, 6-[1-(difluoromethyl)pyrazol-4-yl]-4-[4-[5-(4-ethoxy-3-fluoro-phenyl)-4-methyl-1H-imidazol-2-yl]-4-methyl-1-piperidyl]-7H-pyrrolo[2,3-d]pyrimidine] | 0.0001 to 1
COc1ccc(-c2[nH]c(C3(C)CCN(c4ncnc5[nH]c(-c6ccc(C(N)=O)cc6)cc45)CC3)nc2C)cc1F [P-3212, 4-[4-[4-[5-(3-fluoro-4-methoxy-phenyl)-4-methyl-1H-imidazol-2-yl]-4-methyl-1-piperidyl]-7H-pyrrolo[2,3-d]pyrimidin-6-yl]benzamide] | 0.0001 to 1
COc1cccc(-c2[nH]c(C3(C)CCN(c4ncnc5[nH]c(-c6ccc(N7CCOCC7)nc6)cc45)CC3)nc2C)c1 [P-3223, 4-[5-[4-[4-[5-(3-methoxyphenyl)-4-methyl-1H-imidazol-2-yl]-4-methyl-1-piperidyl]-7H-pyrrolo[2,3-d]pyrimidin-6-yl]-2-pyridyl]morpholine] | 0.0001 to 1
COc1ccc(-c2[nH]c(C3(C)CCN(c4ncnc5[nH]c(-c6cnn(C(F)F)c6)cc45)CC3)nc2C)cn1 [P-3182, 6-[1-(difluoromethyl)pyrazol-4-yl]-4-[4-[5-(6-methoxy-3-pyridyl)-4-methyl-1H-imidazol-2-yl]-4-methyl-1-piperidyl]-7H-pyrrolo[2,3-d]pyrimidine] | 0.0001 to 1
COc1ccc(-c2[nH]c(C3(C)CCN(c4ncnc5[nH]c(-c6ccc(N7CCOCC7)nc6)cc45)CC3)nc2C)cc1F [P-3215, 4-[5-[4-[4-[5-(3-fluoro-4-methoxy-phenyl)-4-methyl-1H-imidazol-2-yl]-4-methyl-1-piperidyl]-7H-pyrrolo[2,3-d]pyrimidin-6-yl]-2-pyridyl]morpholine] | 0.0001 to 1
COc1ccc(-c2cc3c(N4CCC(C)(c5nc(C)c(-c6ccc(C(F)(F)F)cc6)[nH]5)CC4)ncnc3[nH]2)cn1 [P-3178, 6-(6-methoxy-3-pyridyl)-4-[4-methyl-4-[4-methyl-5-[4-(trifluoromethyl)phenyl]-1H-imidazol-2-yl]-1-piperidyl]-7H-pyrrolo[2,3-d]pyrimidine] | 0.0001 to 1
COc1ccc(-c2[nH]c(C3CCN(c4ncnc5[nH]c(-c6ccnc(OC)c6)cc45)CC3)nc2C)cc1 [P-3017, 4-[4-[5-(4-methoxyphenyl)-4-methyl-1H-imidazol-2-yl]-1-piperidyl]-6-(2-methoxy-4-pyridyl)-7H-pyrrolo[2,3-d]pyrimidine] | 0.0001 to 1
Cc1nc(C2(C)CCN(c3ncnc4[nH]c(-c5ccc(OCC(=O)O)cc5)cc34)CC2)[nH]c1-c1cccc(OC(F)F)c1 [P-3233, 2-[4-[4-[4-[5-[3-(difluoromethoxy)phenyl]-4-methyl-1H-imidazol-2-yl]-4-methyl-1-piperidyl]-7H-pyrrolo[2,3-d]pyrimidin-6-yl]phenoxy]acetic acid] | 0.0001 to 1
Cc1nc(C2(C)CCN(c3ncnc4[nH]c(-c5ccc(C#N)cc5)cc34)CC2)[nH]c1-c1ccc(C(F)(F)F)cc1 [P-3177, 4-[4-[4-methyl-4-[4-methyl-5-[4-(trifluoromethyl)phenyl]-1H-imidazol-2-yl]-1-piperidyl]-7H-pyrrolo[2,3-d]pyrimidin-6-yl]benzonitrile] | 0.0001 to 1
Cc1nc(C2(C)CCN(c3ncnc4[nH]c(-c5ccc(NS(C)(=O)=O)cc5)cc34)CC2)[nH]c1-c1cccc(OC(F)F)c1 [P-3232, N-[4-[4-[4-[5-[3-(difluoromethoxy)phenyl]-4-methyl-1H-imidazol-2-yl]-4-methyl-1-piperidyl]-7H-pyrrolo[2,3-d]pyrimidin-6-yl]phenyl]methanesulfonamide] | 0.0001 to 1
COc1ncc(-c2[nH]c(C3CCN(c4ncnc5[nH]c(-c6ccc(C#N)cc6)cc45)CC3)nc2C)cc1F [P-3173, 4-[4-[4-[5-(5-fluoro-6-methoxy-3-pyridyl)-4-methyl-1H-imidazol-2-yl]-1-piperidyl]-7H-pyrrolo[2,3-d]pyrimidin-6-yl]benzonitrile] | 0.0001 to 1
CNC(=O)c1ccc(-c2cc3c(N4CCC(C)(c5nc(C)c(-c6ccc(OC)c(C)c6)[nH]5)CC4)ncnc3[nH]2)cn1 [P-3218, 5-[4-[4-[5-(4-methoxy-3-methyl-phenyl)-4-methyl-1H-imidazol-2-yl]-4-methyl-1-piperidyl]-7H-pyrrolo[2,3-d]pyrimidin-6-yl]-N-methyl-pyridine-2-carboxamide] | 0.0001 to 1
COc1ccc(-c2[nH]c(C3(C)CCN(c4ncnc5[nH]c(-c6cnn(C(F)F)c6)cc45)CC3)nc2C)cc1F [P-3187, 6-[1-(difluoromethyl)pyrazol-4-yl]-4-[4-[5-(3-fluoro-4-methoxy-phenyl)-4-methyl-1H-imidazol-2-yl]-4-methyl-1-piperidyl]-7H-pyrrolo[2,3-d]pyrimidine] | 0.0001 to 1
COc1cccc(-c2[nH]c(C3(C)CCN(c4ncnc5[nH]c(-c6ccc(OCC(=O)O)cc6)cc45)CC3)nc2C)c1 [P-3221, 2-[4-[4-[4-[5-(3-methoxyphenyl)-4-methyl-1H-imidazol-2-yl]-4-methyl-1-piperidyl]-7H-pyrrolo[2,3-d]pyrimidin-6-yl]phenoxy]acetic acid] | 0.0001 to 1
Cc1nc(C2(C)CCN(c3ncnc4[nH]c(-c5ccc(C(N)=O)cc5)cc34)CC2)[nH]c1-c1ccc(C(F)F)cc1 [P-3239, 4-[4-[4-[5-[4-(difluoromethyl)phenyl]-4-methyl-1H-imidazol-2-yl]-4-methyl-1-piperidyl]-7H-pyrrolo[2,3-d]pyrimidin-6-yl]benzamide] | 0.0001 to 1
COc1ccc(-c2[nH]c(C3(C)CCN(c4ncnc5[nH]c(-c6ccc(C#N)nc6)cc45)CC3)nc2C)cc1F [P-3211, 5-[4-[4-[5-(3-fluoro-4-methoxy-phenyl)-4-methyl-1H-imidazol-2-yl]-4-methyl-1-piperidyl]-7H-pyrrolo[2,3-d]pyrimidin-6-yl]pyridine-2-carbonitrile] | 0.0001 to 1
COc1ncc(-c2nc(C3(C)CCN(c4ncnc5[nH]c(C)cc45)CC3)[nH]c2C)cc1F [P-3185, 4-[4-[4-(5-fluoro-6-methoxy-3-pyridyl)-5-methyl-1H-imidazol-2-yl]-4-methyl-1-piperidyl]-6-methyl-7H-pyrrolo[2,3-d]pyrimidine] | 0.0001 to 1
CCOc1ccc(-c2[nH]c(C3(C)CCN(c4ncnc5[nH]c(-c6ccc(OCC(=O)O)cc6)cc45)CC3)nc2C)cc1C [P-3244, 2-[4-[4-[4-[5-(4-ethoxy-3-methyl-phenyl)-4-methyl-1H-imidazol-2-yl]-4-methyl-1-piperidyl]-7H-pyrrolo[2,3-d]pyrimidin-6-yl]phenoxy]acetic acid] | 0.0001 to 1
